Consider one compound from patent publication US7700136B2, “Scutellaria barbata extract for the treatment of cancer” (priority 2005, dated 2010).

For the test, the system named is subcutaneous cancer xenografts. Format: in vivo, mice. The following applies: oral; BZL101 0.5 ml gavage every third day; cyclophosphamide 25 mg/Kg/day in drinking water; FIG. 6. As for the experimental part: As in Example 1, above, 10^5 cells were administered to each animal subcutaneously on Day 0. The animals were divided into four groups. The control group received only normal drinking water. The cyclophosphamide only group received 25 mg/Kg/day of cyclophosphamide in their drinking water.

As to `O=P1(N(CCCl)CCCl)NCCCO1` (stereo not shown) [cyclophosphamide], the tumor growth inhibition result was “inhibited tumor growth as compared to the control”.
